Results on 21 compounds are retold here after US12240846B2 (Enliven Inc., priority 2020, dated 2025).

Assay [1] has as its system K562 cells. As to the kind of experiment: K562 cell proliferation assay (CellTiter-Glo). As to conditions: Homo sapiens, K562 cell viability, 72 hours, read-out: Cell Line (IC50, nM) K562. The assay is classed as cell-based. As to the method: (§1) K562 and HL60 Cell Proliferation Assay
(§2) K562 and HL60 cells, cultured in Iscove's Modified Dulbecco's Media (IMDM) supplemented with 10% FBS, were harvested at 50-80% confluency and plated at 2,000 cells per well (K562) or 1,500 cells per well (HL60) in 384-well tissue culture plates. A subset of wells contained media only (low control, LC). […] The plates were placed in a 37° C. incubator with 5% CO2 for 72 hours. Cell viability was measured using a CellTiter-Glo luminescent cell viability assay (Promega), which allows for relative quantification of metabolically active cells by luminescence-based measurements of intracellular ATP concentrations. Briefly, plates were removed from the incubator and equilibrated for 15 minutes at room temperature prior to the addition of 40 μL of CellTiter-Glo reagent. Plates were then incubated for 30 minutes at room temperature. Luminescence was measured using an EnSpire plate reader (Perkin Elmer). As noted above, luminescence values from wells with DMSO only or media without cells were used as high and low controls (HC and LC), respectively. Normalized percent viability was calculated as follows: percent viability=100×(Lumsample−LumLC)/(LumHC−LumLC).

The test system of assay [2] is HL60 cells. As to the kind of experiment: HL60 cell proliferation assay (CellTiter-Glo). The following applies: Homo sapiens, HL-60, HL60 cell viability, 72 hours, read-out: Cell Line (IC50, nM) HL60. Format: cell-based. As for the experimental part:
as §1, §2
In general terms: ATP-based viability assays read luminescence as a measure of living cells.

The target of assay [3] is ABL1 (T315I) (Homo sapiens, UniProt P00519, T315I). As to the kind of experiment: Luminescence-based ABL kinase assay (300 μM ATP), ADP-Glo. The assay is classed as biochemical.
In assay [4] the target is T1, ABL1 (Homo sapiens, UniProt P00519).
T1 construct: purchased Carna Biosciences
Described as above. Format: biochemical. From the text: Compounds were serially diluted in DMSO. […] Luminescence signal positively correlates with kinase activity.

Where a name gives a salt, the structure may show the parent alone. Where only a bound is given, the exact number is not on record here.

For the compound `Cc1c(O)cccc1-c1cc2cc(NC(=O)[C@@H]3C[C@@H]3F)ncc2n1C` [Compound 24, (1S,2S)-2-fluoro-N-(2-(3-hydroxy-2-methylphenyl)-1-methyl-1H-pyrrolo[2,3-c]pyridin-5-yl)cyclopropane-1-carboxamide], the IC50 (in general, the concentration needed to halve the response being measured) in assay [1] was 122 nM; in assay [2], 794 nM; in assay [3], 8.34 nM; in assay [4] it was 9.33 nM.
`COc1cccc(C)c1-c1cc2cc(NC(=O)[C@@H]3C[C@@H]3F)ncc2n1C` [Compound 25, (1S,2S)-2-fluoro-N-[2-(2-methoxy-6-methylphenyl)-1-methylpyrrolo[2,3-c]pyridin-5-yl]cyclopropane-1-carboxamide]: the IC50 in assay [1] is 91.7 nM; in assay [2], 523 nM; in assay [3] it was 10.8 nM; in assay [4], 10.9 nM.
As to `COc1cc2[nH]cnc2cc1-c1cc2cc(NC(=O)[C@@H]3C[C@@H]3F)ncc2n1C` [Compound 28, (1S,2S)-2-fluoro-N-(2-(6-methoxy-1H-benzo[d]imidazol-5-yl)-1-methyl-1H-pyrrolo[2,3-c]pyridin-5-yl)cyclopropanecarboxamide formate], the IC50 in assay [1] worked out at 30.4 nM; in assay [2] it was 233 nM; in assay [3], 19.8 nM; in assay [4], 9.95 nM.
In the case of `COc1c(-c2cc3cc(NC(=O)[C@@H]4C[C@@H]4F)ncc3n2C)ccc2[nH]cnc12` [Compound 29, (1S,2S)-2-fluoro-N-[2-(4-methoxy-1H-1,3-benzodiazol-5-yl)-1-methylpyrrolo[2,3-c]pyridin-5-yl]cyclopropane-1-carboxamide], the IC50 in assay [1] stood at 258 nM; in assay [2] it was 800 nM; in assay [3], 22.2 nM; in assay [4] it was 52 nM.
As for `COc1c(-c2cc3cc(NC(=O)[C@@H]4C[C@@H]4F)ncc3n2C)ccc2cn[nH]c12` [Compound 30, (1S,2S)-2-fluoro-N-(2-(7-methoxy-1H-indazol-6-yl)-1-methyl-1H-pyrrolo[2,3-c]pyridin-5-yl)cyclopropane-1-carboxamide], the IC50 in assay [1] amounted to 245 nM; in assay [2] it was 320 nM; in assay [3] it was 139 nM; in assay [4], 119 nM.
The matching figures for `COc1ncccc1-c1cc2cc(NC(=O)[C@H]3C[C@H]3F)ncc2n1C` [Compound 34, (1R,2R)-2-fluoro-N-[2-(2-methoxypyridin-3-yl)-1-methylpyrrolo[2,3-c]pyridin-5-yl]cyclopropane-1-carboxamide]: 208 nM, 3840 nM, 124 nM and 40.8 nM.
For `CCOc1ncccc1-c1cc2cc(NC(=O)[C@@H]3C[C@@H]3F)ncc2n1C` [Compound 36, (1S,2S)-N-[2-(2-ethoxypyridin-3-yl)-1-methylpyrrolo[2,3-c]pyridin-5-yl]-2-fluorocyclopropane-1-carboxamide], the IC50 in assay [1] stood at 105 nM; in assay [2], 3630 nM; in assay [3] it was 308 nM; in assay [4], 6.33 nM.
As to `COc1ccccc1-c1c(C)c2cc(NC(=O)[C@@H]3C[C@@H]3F)ncc2n1C` [Compound 43, (1S,2S)-2-fluoro-N-(2-(2-methoxyphenyl)-1,3-dimethyl-1H-pyrrolo[2,3-c]pyridin-5-yl)cyclopropane-1-carboxamide], the IC50 in assay [1] was 317 nM; in assay [2], > 10000 nM; in assay [3], 24.7 nM; in assay [4], 50.2 nM.
For the compound `COc1ccccc1-c1c(C)c2cc(NC(=O)[C@H]3C[C@H]3F)ncc2n1C` [Compound 44, (1R,2R)-2-fluoro-N-[2-(2-methoxyphenyl)-1,3-dimethylpyrrolo[2,3-c]pyridin-5-yl]cyclopropane-1-carboxamide], the IC50 is 368 nM in assay [1], > 10000 nM in assay [2], 36 nM in assay [3] and 74.5 nM in assay [4].
As to `COc1ccccc1-c1c(C#N)c2cc(NC(=O)C3CC3)ncc2n1C` [Compound 47, N-[3-cyano-2-(2-methoxyphenyl)-1-methylpyrrolo[2,3-c]pyridin-5-yl]cyclopropanecarboxamide], the IC50 was 1360 nM in assay [1], > 10000 nM in assay [2], 548 nM in assay [3] and 244 nM in assay [4].
`COc1ccccc1-c1[nH]c2cc(NC(=O)[C@@H]3C[C@@H]3F)ncc2c1C` [Compound 48, (1S,2S)-2-fluoro-N-[2-(2-methoxyphenyl)-3-methyl-1H-pyrrolo[3,2-c]pyridin-6-yl]cyclopropane-1-carboxamide]: the IC50 is 85.8 nM in assay [1], 808 nM in assay [2], 4.48 nM in assay [3] and 31.7 nM in assay [4].
As to `COc1ncccc1-c1c(C)c2cnc(NC(=O)[C@@H]3C[C@@H]3F)cc2n1C` [Compound 56, (1S,2S)-2-fluoro-N-[2-(2-methoxypyridin-3-yl)-1,3-dimethylpyrrolo[3,2-c]pyridin-6-yl]cyclopropane-1-carboxamide], the IC50 worked out at 240 nM in assay [1], 6200 nM in assay [2], 141 nM in assay [3] and 198 nM in assay [4].
`COc1ncc(F)cc1-c1c(C)c2cnc(NC(=O)[C@@H]3C[C@@H]3F)cc2n1C` [Compound 57, (1S,2S)-2-fluoro-N-(2-(5-fluoro-2-methoxypyridin-3-yl)-1,3-dimethyl-1H-pyrrolo[3,2-c]pyridin-6-yl)cyclopropane-1-carboxamide]: the IC50 stood at 128 nM in assay [1], 4270 nM in assay [2], 83.7 nM in assay [3] and 111 nM in assay [4].
Taken in the same sequence, the figures for `COc1nccc(C)c1-c1cc2cc(NC(=O)[C@@H]3C[C@@H]3F)ncc2n1C` [Compound 59, (1S,2S)-2-fluoro-N-[2-(2-methoxy-4-methylpyridin-3-yl)-1-methylpyrrolo[2,3-c]pyridin-5-yl]cyclopropane-1-carboxamide] were 120 nM, 1460 nM, 40.7 nM and 40.2 nM.
The matching figures for `COc1ncc(F)cc1-c1c(C)c2cc(NC(=O)[C@@H]3C[C@@H]3F)ncc2n1C` [Compound 60, (1S,2S)-2-fluoro-N-[2-(5-fluoro-2-methoxypyridin-3-yl)-1,3-dimethylpyrrolo[2,3-c]pyridin-5-yl]cyclopropane-1-carboxamide]: 718 nM, 6490 nM, 193 nM and 191 nM.
Turning to `COc1ncccc1-c1c(C)c2cc(NC(=O)[C@@H]3C[C@@H]3F)ncc2n1C` [Compound 61, (1S,2S)-2-fluoro-N-(2-(2-methoxypyridin-3-yl)-1,3-dimethyl-1H-pyrrolo[2,3-c]pyridin-5-yl)cyclopropanecarboxamide], the IC50 was determined as 576 nM in assay [1], 4860 nM in assay [2], 308 nM in assay [3] and 207 nM in assay [4].
Regarding `[2H]C([2H])([2H])n1c(-c2cccnc2OC)cc2cc(NC(=O)[C@@H]3C[C@@H]3F)ncc21` [Compound 64, (1S,2S)-2-fluoro-N-(2-(2-methoxypyridin-3-yl)-1-(methyl-d3)-1H-pyrrolo[2,3-c]pyridin-5-yl)cyclopropane-1-carboxamide], the IC50 in assay [1] is 139 nM; in assay [2], 1610 nM; in assay [3] it was 47.8 nM; in assay [4], 32.5 nM.
As for `[2H]C([2H])([2H])n1c(-c2cc(F)cnc2OC)cc2cc(NC(=O)[C@@H]3C[C@@H]3F)ncc21` [Compound 65, (1S,2S)-2-fluoro-N-(2-(5-fluoro-2-methoxypyridin-3-yl)-1-(methyl-d3)-1H-pyrrolo[2,3-c]pyridin-5-yl)cyclopropane-1-carboxamide], the IC50 was 217 nM in assay [1], > 10000 nM in assay [2], 47.6 nM in assay [3] and 49.2 nM in assay [4].
As for `COc1ncc(Cl)cc1-c1cc2cc(NC(=O)[C@@H]3C[C@@H]3F)ncc2n1C` [Compound 66, (1S,2S)-N-[2-(5-chloro-2-methoxypyridin-3-yl)-1-methylpyrrolo[2,3-c]pyridin-5-yl]-2-fluorocyclopropane-1-carboxamide], the IC50 in assay [1] was 100 nM; in assay [2] it was 1750 nM; in assay [3] it was 68 nM; in assay [4], 25.4 nM.
For `COc1ncc(C#N)cc1-c1cc2cc(NC(=O)[C@@H]3C[C@@H]3F)ncc2n1C` [Compound 67, (1S,2S)-N-[2-(5-cyano-2-methoxypyridin-3-yl)-1-methylpyrrolo[2,3-c]pyridin-5-yl]-2-fluorocyclopropane-1-carboxamide], the IC50 in assay [1] came to 207 nM; in assay [2], 5280 nM; in assay [3] it was 513 nM; in assay [4] it was 126 nM.
With `COc1cc2scnc2cc1-c1cc2cc(NC(=O)[C@@H]3C[C@@H]3F)ncc2n1C` [Compound 70, (1S,2S)-2-fluoro-N-[2-(6-methoxy-1,3-benzothiazol-5-yl)-1-methylpyrrolo[2,3-c]pyridin-5-yl]cyclopropane-1-carboxamide], the IC50 in assay [1] is 193 nM; in assay [2], 1030 nM; in assay [3], 316 nM; in assay [4] it was 87.4 nM.
